{"source": "patent US11986465B1", "about": "“2-amino-4-(4-bromophenyl)-6-ethoxypyridine-3,5-dicarbonitrile as an antibacterial compound” (KING FAISAL UNIVERSITY, priority 2023, dated 2024)", "assay_type_in_all_cases": "cell-based", "key": {"Escherichia coli": {"test_system": "Escherichia coli", "assay": "Agar plate disc-diffusion antibacterial test, Escherichia coli", "settings": "Gram negative", "experimental": "(§1) The agar plate disc-diffusion method was applied. […] The discs were then placed onto the surface of agar plates (nutrient agar for bacteria) seeded with the test organism. Each plate contained 15 mL of the agar medium, previously seeded with 0.2 mL of the broth culture of each organism pregrown for 18 hours. The inhibition zones were measured in millimeters (mm). Discs impregnated with DMSO were used as a control, and its inhibition zone was subtracted from the tested compound's actual inhibition zone.\n(§2) The antibacterial activity was screened against gram positive bacteria namely Bacillus cereus and Staphylococcus aureus and gram-negative bacterial strains namely Pseudomonas aeruginosa and Escherichia coli using ciprofloxacin as a reference, as shown in Table 1."}, "Pseudomonas aeruginosa": {"test_system": "Pseudomonas aeruginosa", "assay": "Agar plate disc-diffusion antibacterial test, Pseudomonas aeruginosa", "settings": "Gram negative", "experimental": "as §1, §2"}, "Staphylococcus aureus": {"test_system": "Staphylococcus aureus", "assay": "Agar plate disc-diffusion antibacterial test, Staphylococcus aureus", "settings": "Gram positive", "experimental": "as §1, §2"}, "Bacillus cereus": {"test_system": "Bacillus cereus", "assay": "Agar plate disc-diffusion antibacterial test, Bacillus cereus", "settings": "Gram positive", "experimental": "as §1, §2"}, "[1]": {"settings": "A = concentration of comp. = 10,000 μL"}, "[2]": {"settings": "B = concentration of comp. = 30.000 μL"}, "[3]": {"settings": "C = concentration of comp. = 50,000 μL"}}}
{"smiles": "CCOc1nc(N)c(C#N)c(-c2ccc(Br)cc2)c1C#N", "note": "[Compound 3, 2-amino-4-(4-bromophenyl)-6-ethoxypyridine-3,5-dicarbonitrile]", "values": [{"measurement": "inhibition zone, Escherichia coli, A", "setting": "Escherichia coli; [1]", "value": 37, "unit": "mm"}, {"measurement": "inhibition zone, Escherichia coli, B", "setting": "Escherichia coli; [2]", "value": 40, "unit": "mm"}, {"measurement": "inhibition zone, Escherichia coli, C", "setting": "Escherichia coli; [3]", "value": 44, "unit": "mm"}, {"measurement": "inhibition zone, Pseudomonas aeruginosa, A", "setting": "Pseudomonas aeruginosa; [1]", "value": 23, "unit": "mm"}, {"measurement": "inhibition zone, Pseudomonas aeruginosa, B", "setting": "Pseudomonas aeruginosa; [2]", "value": 33, "unit": "mm"}, {"measurement": "inhibition zone, Pseudomonas aeruginosa, C", "setting": "Pseudomonas aeruginosa; [3]", "value": 39, "unit": "mm"}, {"measurement": "inhibition zone, Staphylococcus aureus, A", "setting": "Staphylococcus aureus; [1]", "value": 19, "unit": "mm"}, {"measurement": "inhibition zone, Staphylococcus aureus, B", "setting": "Staphylococcus aureus; [2]", "value": 26, "unit": "mm"}, {"measurement": "inhibition zone, Staphylococcus aureus, C", "setting": "Staphylococcus aureus; [3]", "value": 31, "unit": "mm"}, {"measurement": "inhibition zone, Bacillus Cereus, A", "setting": "Bacillus cereus; [1]", "value": 30, "unit": "mm"}, {"measurement": "inhibition zone, Bacillus Cereus, B", "setting": "Bacillus cereus; [2]", "value": 36, "unit": "mm"}, {"measurement": "inhibition zone, Bacillus Cereus, C", "setting": "Bacillus cereus; [3]", "value": 41, "unit": "mm"}]}
